Consider 1 compound from patent US20070010488A1, “Compounds for modulating cell proliferation” (priority 2005, published 2007).

Holding throughout (format): cell-based
One test deals with OCI-AML2 (AML). Kind of test: Alamar Blue cell viability assay, OCI-AML2. The following applies: Homo sapiens, 72 hours. The method, then:
(§1) Each test compound was weighed between the ranges of 0.5-2.0 mg, and then dissolved in a specified volume of DMSO to produce a solution of 10 mM. Appropriate dilutions in cell culture medium were made to produce a stock solution of 400 μM. All subsequent dilutions were also done in cell culture medium. This stock solution was then used for further dilutions to produce the initial concentration to be added to the 50 μL and 450 μL of cells in the 96-well and the 48-well microtiter plates, respectively:
(§2) The initial concentration for cells that were cultured in 50 μL 96-well plates was 40 μM. Once 50 μL of this test solution was added to the cells, this then produced a final dilution of 1:2, giving the desired concentration of 20 μM. Further 1:2 dilutions were made until the desired concentration of […] was reached.
(§3) Compound 1 was used as positive control at concentrations of 1 μM and 3 μM. […] C1 and OCI-AML2 and RPMI8226 cell culture media were assayed by addition of 20 μL of Alamar Blue reagent and incubated for 4 hours before reading. […]
(§4) 50 μL of cell culture medium containing the test compound was added to each well twenty four hours after seeding. […] Proliferation of cells was assessed using the fluorimetric Alamar Blue (CellTiter Blue) test and cell counting.
(§5) For the Alamar Blue assay, untreated cells were used as growth controls. Data were assessed in duplicates. […]
In general terms: Resazurin is reduced to fluorescent resorufin, in cell work by metabolically active cells.

A further test has as its system MOLM-13 (AML). In words: Alamar Blue cell viability assay, MOLM-13. The following applies: Homo sapiens, 72 hours. As to the method: as §1
(§6) The initial concentration for cells that were cultured in 50 μL 96-well plates was 40 μM. […]
as §4
(§7) For the Alamar Blue assay, untreated cells were used as growth controls. Data were assessed in duplicates. […] The Alamar Blue cell viability assay was used to determine the IC50 concentrations for the inhibition of cell proliferation or induction of cell death by the ets articles as well as the reference Compound A. Primary data from all assays were plotted for each test compound, cell system and test concentration, with the y-axis representing the readout for cell proliferation/viability and the x-axis representing the compound concentration (μM). […]

The subject of another test is KASUMI-1 (AML). In words: Alamar Blue cell viability assay, KASUMI-1. The note with it: Homo sapiens, 72 hours. As to the method: as §1, §6, §4, §7
For a further test, the system named is SKM-1 (AML). Kind of test: Alamar Blue cell viability assay, SKM-1. The following applies: Homo sapiens, 72 hours. The method, then:
as §1, §6, §4, §7

A further test concerns MV4-11 (AML). In words: Alamar Blue cell viability assay, MV4-11. The note with it: Homo sapiens, 72 hours. The method, then:
as §1, §6, §4, §7

Another test concerns C1 (T-ALL). Kind of test: Alamar Blue cell viability assay, C1. The following applies: Homo sapiens, 72 hours. The method, then:
as §1, §2, §3, §4, §5

The next test concerns CCRF-CEM (T-ALL). Kind of test: Alamar Blue cell viability assay, CCRF-CEM. The note with it: Homo sapiens, 72 hours. As to the method: as §1, §6, §4, §7
The subject of a further test is MOLT-4 (T-ALL). Kind of test: Alamar Blue cell viability assay, MOLT-4. The note with it: Homo sapiens, 72 hours. The method, then: as §1, §6, §4, §7
Another test has as its system PEER (B-ALL). Kind of test: Alamar Blue cell viability assay, PEER. The note with it: Homo sapiens, 72 hours. As to the method:
as §1, §6, §4, §7

A further test concerns SUP-B15 (B-ALL). In words: Alamar Blue cell viability assay, SUP-B15. The following applies: Homo sapiens, 72 hours. The method, then: as §1, §6, §4, §7
In a further test the test system is RPMI8226 (myeloma). Kind of test: Alamar Blue cell viability assay, RPMI8226. The following applies: Homo sapiens, RPMI-8226, 72 hours. As to the method: as §1, §2, §3, §4, §5
The test system of test [1] is DAUDI (non-Hodgkin lymphoma). Kind of test: Trypan Blue Dye Exclusion and Cell Counting Assay, DAUDI. The note with it: Homo sapiens, 72 hours. The method, then: as §1, §2
Compound 1 was used as positive control at concentrations of 1 μM and 3 μM. Cells were incubated with the test compounds for 72 hours. C1 and OCI-AML2 and RPMI8226 cell culture media were assayed by addition of 20 μL of Alamar Blue reagent and incubated for 4 hours before reading. Cell counting was utilised for K562 and DAUDI. [drawing 13] […]
as §4

The IC50 is the concentration that inhibits the measured activity by half. A high value points to weaker potency in that assay. Regarding `CCN1C/C(=C\c2cc(OC)c(OC)c(OC)c2)C(=O)/C(=C/c2cc(OC)c(OC)c(OC)c2)C1` [Compound A], the IC50 came out at 1030 nM in the test with OCI-AML2 (AML); 1900 nM in the test with MOLM-13 (AML); 560 nM in the test on KASUMI-1 (AML); 560 nM in the test with SKM-1 (AML); 220 nM in the test on MV4-11 (AML); 180 nM in the test on C1 (T-ALL). Further, the 50% inhibitory concentration (IC50) in the test on CCRF-CEM (T-ALL) worked out at 1180 nM; in the test with MOLT-4 (T-ALL), 970 nM; in the test on PEER (B-ALL), 720 nM; with SUP-B15 (B-ALL), 1030 nM; with RPMI8226 (myeloma) it was 1500 nM; in [1] it was 550 nM.
